The target of the assay is T1, human vasopressin V1b receptor (Homo sapiens, UniProt P47901).
T1 construct: expressed in transfected cells; host or cells: CHO-K1 (cell line hV1b_3H2_CHO), membrane preparation
T1 sequence (P47901 1-424): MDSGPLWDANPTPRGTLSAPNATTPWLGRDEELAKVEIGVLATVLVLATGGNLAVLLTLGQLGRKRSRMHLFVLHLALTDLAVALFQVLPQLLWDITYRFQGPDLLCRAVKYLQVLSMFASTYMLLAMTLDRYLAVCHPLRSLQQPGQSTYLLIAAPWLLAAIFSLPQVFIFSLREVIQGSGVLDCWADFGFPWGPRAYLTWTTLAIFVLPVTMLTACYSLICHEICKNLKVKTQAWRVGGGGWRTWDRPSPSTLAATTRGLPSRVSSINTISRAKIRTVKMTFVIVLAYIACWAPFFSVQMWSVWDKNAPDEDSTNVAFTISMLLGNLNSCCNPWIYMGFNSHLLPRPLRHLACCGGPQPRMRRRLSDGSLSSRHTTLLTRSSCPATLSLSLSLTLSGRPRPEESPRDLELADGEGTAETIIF
Nature of the assay: Vasopressin V1b receptor binding test. Particulars: membranes of CHO-K1 cells with human V1b receptor, displacement of 1.5 nM 3H-AVP; for compounds with more than one stereogenic center the diastereomer with greater affinity. The method, then: Vasopressin V1b Receptor Binding Test:
The test substances were dissolved at a concentration of 10^−2 M in DMSO, and were further diluted to 5×10^−4 M to 5×10^−9 M in DMSO. This DMSO predilution series was diluted 1:10 with test buffer. In the test assay the substance concentration was further diluted to 1:5 (2% DMSO in the assay).
The membrane pellet was homogenized again as described and centrifuged, and was then taken up in 50 mM tris-HCl at pH 7.4, homogenized, and frozen in aliquots at −190° C. and stored in liquid nitrogen.
The incubation buffer was 50 mM tris, 10 mM MgCl2, and 0.1% BSA at pH 7.4. […] The nonspecific binding was determined using 1 μM AVP (Bachem #H1780). All determinations were performed in triplicate. After incubation (60 minutes at room temperature), the free radioligand was filtered off by vacuum filtration (Skatron 7000 cell harvester) through Wathman GF/B fiberglass filter mats, and the filters were transferred to scintillation vessels. The liquid scintillation measurement was conducted in a Model 2000 or 2200CA TriCarb unit (Packard). The measured cpm was converted to dpm using a standard quench series.
The binding parameters were calculated by nonlinear regression in SAS.
The affinities of the compounds according to the invention for human vasopressin receptor V1b were measured according to the above test, and the affinity constants (Ki) were determined.

“5-Chloro-1-(4-cyanobenzenesulfonyl)-3-{4-[(2-hydroxyethylamino)methyl]-2-methoxyphenyl}-3-((2S,4R)-4-hydroxy-2-oxazol-2-yl-pyrrolidin-1-yl)-2,3-dihydroindol-2-one [Example 196]” had a Ki of 10 to 100 nM. With `COc1ccc(S(=O)(=O)N2C(=O)C(c3cc(CN4CCN(C)CC4)ccc3OC)(N3CCC[C@H]3c3ncco3)c3cc(Cl)ccc32)cc1` (single isomer, unassigned) [Example 1] the figure was less than 10 nM.

In the case of `COc1ccc(S(=O)(=O)N2C(=O)C(c3cc(CN4CCC4)ccc3OC)(N3CCC[C@H]3c3ncco3)c3cc(Cl)ccc32)cc1` (single isomer, unassigned) [Example 12], the Ki is less than 10 nM. With `COc1ccc(S(=O)(=O)N2C(=O)C(c3cc(CN4CCN(C)CC4)ccc3OC)(N3C[C@H](O)C[C@H]3c3ncco3)c3cc(C#N)ccc32)cc1` (single isomer, unassigned) [Example 149] the figure was less than 10 nM; with `COc1ccc(S(=O)(=O)N2C(=O)C(c3cc(CO)ccc3OC)(N3CCC[C@H]3c3ncco3)c3cc(Cl)ccc32)cc1` (stereo partly drawn) [Example 2, 5-Chloro-3-(5-hydroxymethyl-2-methoxyphenyl)-1-(4-methoxybenzenesulfonyl)-3-((S)-2-oxazol-2-yl-pyrrolidin-1-yl)-1,3-dihydroindol-2-one], 10 to 100 nM. The molecule `CNCc1ccc(OC)c(C2(N3CCC[C@H]3c3ncco3)C(=O)N(S(=O)(=O)c3ccc(OC)cc3)c3ccc(Cl)cc32)c1` (stereo partly drawn) [Example 3, 5-Chloro-1-(4-methoxybenzenesulfonyl)-3-(2-methoxy-5-methylaminomethylphenyl)-3-((S)-2-oxazol-2-yl-pyrrolidin-1-yl)-1,3-dihydroindol-2-one] returned a Ki of less than 10 nM.

Molecule `COc1ccc(S(=O)(=O)N2C(=O)C(c3cc(CN(C)C)ccc3OC)(N3CCC[C@H]3c3ncco3)c3cc(Cl)ccc32)cc1` (stereo partly drawn) [Example 4, 5-Chloro-3-(5-dimethylaminomethyl-2-methoxyphenyl)-1-(4-methoxybenzenesulfonyl)-3-((S)-2-oxazol-2-yl-pyrrolidin-1-yl)-1,3-dihydroindol-2-one] registered a Ki of less than 10 nM. In the case of `CCNCc1ccc(OC)c(C2(N3CCC[C@H]3c3ncco3)C(=O)N(S(=O)(=O)c3ccc(OC)cc3)c3ccc(Cl)cc32)c1` (stereo partly drawn) [Example 5, 5-Chloro-3-(5-ethylaminomethyl-2-methoxyphenyl)-1-(4-methoxybenzenesulfonyl)-3-((S)-2-oxazol-2-yl-pyrrolidin-1-yl)-1,3-dihydroindol-2-one] it was less than 10 nM; in that of `CCN(C)Cc1ccc(OC)c(C2(N3CCC[C@H]3c3ncco3)C(=O)N(S(=O)(=O)c3ccc(OC)cc3)c3ccc(Cl)cc32)c1` (stereo partly drawn) [Example 6, 5-Chloro-3-{5-[(ethylmethylamino)methyl]-2-methoxyphenyl}-1-(4-methoxybenzenesulfonyl)-3-((S)-2-oxazol-2-yl-pyrrolidin-1-yl)-1,3-dihydroindol-2-one], less than 10 nM. As for `CCN(CC)Cc1ccc(OC)c(C2(N3CCC[C@H]3c3ncco3)C(=O)N(S(=O)(=O)c3ccc(OC)cc3)c3ccc(Cl)cc32)c1` (stereo partly drawn) [Example 7, 5-Chloro-3-(5-diethylaminomethyl-2-methoxyphenyl)-1-(4-methoxybenzenesulfonyl)-3-((S)-2-oxazol-2-yl-pyrrolidin-1-yl)-1,3-dihydroindol-2-one], the Ki was less than 10 nM. With `COc1ccc(S(=O)(=O)N2C(=O)C(c3cc(CNC(C)C)ccc3OC)(N3CCC[C@H]3c3ncco3)c3cc(Cl)ccc32)cc1` (stereo partly drawn) [Example 8, 5-Chloro-3-[5-(isopropylaminomethyl)-2-methoxyphenyl]-1-(4-methoxybenzenesulfonyl)-3-((S)-2-oxazol-2-yl-pyrrolidin-1-yl)-1,3-dihydroindol-2-one] the figure was less than 10 nM; with `COc1ccc(S(=O)(=O)N2C(=O)C(c3cc(CN(C)C(C)C)ccc3OC)(N3CCC[C@H]3c3ncco3)c3cc(Cl)ccc32)cc1` (stereo partly drawn) [Example 9, 5-Chloro-3-{5-[(isopropylmethylamino)methyl]-2-methoxyphenyl}-1-(4-methoxybenzenesulfonyl)-3-((S)-2-oxazol-2-yl-pyrrolidin-1-yl)-1,3-dihydroindol-2-one], less than 10 nM. In the case of `COc1ccc(S(=O)(=O)N2C(=O)C(c3cc(CNCCO)ccc3OC)(N3CCC[C@H]3c3ncco3)c3cc(Cl)ccc32)cc1` (stereo partly drawn) [Example 10, 5-Chloro-3-{5-[(2-hydroxyethylamino)methyl]-2-methoxyphenyl}-1-(4-methoxybenzenesulfonyl)-3-((S)-2-oxazol-2-yl-pyrrolidin-1-yl)-1,3-dihydroindol-2-one], the Ki was less than 10 nM. `COc1ccc(S(=O)(=O)N2C(=O)C(c3cc(CN4CCNCC4)ccc3OC)(N3CCC[C@H]3c3ncco3)c3cc(Cl)ccc32)cc1` (stereo partly drawn) [Example 11, 5-Chloro-1-(4-methoxybenzenesulfonyl)-3-(2-methoxy-5-piperazin-1-ylmethylphenyl)-3-((S)-2-oxazol-2-yl-pyrrolidin-1-yl)-1,3-dihydroindol-2-one]: the Ki is less than 10 nM.

For `COc1ccc(S(=O)(=O)N2C(=O)C(c3cc(CN4CCCC4)ccc3OC)(N3CCC[C@H]3c3ncco3)c3cc(Cl)ccc32)cc1` (stereo partly drawn) [Example 13, 5-Chloro-1-(4-methoxybenzenesulfonyl)-3-(2-methoxy-5-pyrrolidin-1-ylmethylphenyl)-3-((S)-2-oxazol-2-yl-pyrrolidin-1-yl)-1,3-dihydroindol-2-one], the Ki is less than 10 nM. On to `COc1ccc(S(=O)(=O)N2C(=O)C(c3cc(CN4CCCCC4)ccc3OC)(N3CCC[C@H]3c3ncco3)c3cc(Cl)ccc32)cc1` (stereo partly drawn) [Example 14, 5-Chloro-1-(4-methoxybenzenesulfonyl)-3-(2-methoxy-5-piperidin-1-ylmethylphenyl)-3-((S)-2-oxazol-2-yl-pyrrolidin-1-yl)-1,3-dihydroindol-2-one], for which the Ki was less than 10 nM.

In the case of `COc1ccc(S(=O)(=O)N2C(=O)C(c3ccc(CO)cc3OC)(N3CCC[C@H]3c3ncco3)c3cc(Cl)ccc32)cc1` (stereo partly drawn) [Example 15, 5-Chloro-3-(4-hydroxymethyl-2-methoxyphenyl)-1-(4-methoxybenzenesulfonyl)-3-((S)-2-oxazol-2-yl-pyrrolidin-1-yl)-1,3-dihydroindol-2-one], the inhibition constant Ki lay within 10 to 100 nM. The molecule `CNCc1ccc(C2(N3CCC[C@H]3c3ncco3)C(=O)N(S(=O)(=O)c3ccc(OC)cc3)c3ccc(Cl)cc32)c(OC)c1` (stereo partly drawn) [Example 16, 5-Chloro-1-(4-methoxybenzenesulfonyl)-3-(2-methoxy-4-methylaminomethylphenyl)-3-((S)-2-oxazol-2-yl-pyrrolidin-1-yl)-1,3-dihydroindol-2-one] returned a Ki of less than 10 nM. In the case of `COc1ccc(S(=O)(=O)N2C(=O)C(c3ccc(CN(C)C)cc3OC)(N3CCC[C@H]3c3ncco3)c3cc(Cl)ccc32)cc1` (stereo partly drawn) [Example 17, 5-Chloro-3-(4-dimethylaminomethyl-2-methoxyphenyl)-1-(4-methoxybenzenesulfonyl)-3-((S)-2-oxazol-2-yl-pyrrolidin-1-yl)-1,3-dihydroindol-2-one] it was less than 10 nM; in that of `CCN(C)Cc1ccc(C2(N3CCC[C@H]3c3ncco3)C(=O)N(S(=O)(=O)c3ccc(OC)cc3)c3ccc(Cl)cc32)c(OC)c1` (stereo partly drawn) [Example 18, 5-Chloro-3-{4-[(ethylmethylamino)methyl]-2-methoxyphenyl}-1-(4-methoxybenzenesulfonyl)-3-((S)-2-oxazol-2-yl-pyrrolidin-1-yl)-1,3-dihydroindol-2-one], less than 10 nM; in that of `CCN(CC)Cc1ccc(C2(N3CCC[C@H]3c3ncco3)C(=O)N(S(=O)(=O)c3ccc(OC)cc3)c3ccc(Cl)cc32)c(OC)c1` (stereo partly drawn) [Example 19, 5-Chloro-3-(4-diethylaminomethyl-2-methoxyphenyl)-1-(4-methoxybenzenesulfonyl)-3-((S)-2-oxazol-2-yl-pyrrolidin-1-yl)-1,3-dihydroindol-2-one], less than 10 nM. `CCCNCc1ccc(C2(N3CCC[C@H]3c3ncco3)C(=O)N(S(=O)(=O)c3ccc(OC)cc3)c3ccc(Cl)cc32)c(OC)c1` (stereo partly drawn) [Example 20, 5-Chloro-1-(4-methoxybenzenesulfonyl)-3-(2-methoxy-4-propylaminomethylphenyl)-3-((S)-2-oxazol-2-yl-pyrrolidin-1-yl)-1,3-dihydroindol-2-one] gave a Ki of less than 10 nM. `COc1ccc(S(=O)(=O)N2C(=O)C(c3ccc(CN(C)C(C)C)cc3OC)(N3CCC[C@H]3c3ncco3)c3cc(Cl)ccc32)cc1` (stereo partly drawn) [Example 21, 5-Chloro-3-{4-[(isopropylmethylamino)methyl]-2-methoxyphenyl}-1-(4-methoxybenzenesulfonyl)-3-((S)-2-oxazol-2-yl-pyrrolidin-1-yl)-1,3-dihydroindol-2-one] had a Ki of less than 10 nM.

In general, Ki refers to a measure of affinity in units of concentration, obtained from inhibition or displacement. The low end stands for tighter binding, the high end for weaker binding.

The record behind these values is US8044079B2, “Substituted oxindole derivatives, medicaments containing said derivatives and use thereof” (Abbott GmbH & Co. KG, priority 2005, dated 2011).
